pEC50: −log10 of the molar value.
Assays:
[1] = system: Sl-producing cells, via Adcyap1r1; set-up: method as in PMID 18523122, PMID 19540424, PMID 23422837; details: grass carp and goldfish; cited from earlier work
[2] = system: prolactin (prl) gene expression; experiment: Ex vivo pituitary organ culture, real-time PCR of prl; type: cell-based, medaka (Oryzias latipes); details: for prl expression (in words): 10^-5 M, 24 h, 25 °C, vs vehicle
Text: (§1) Fig. 8 Pacap and Vip have pleiotropic effects on the expression of anterior pituitary hormones. The effects of Pacap and Vip on gene expression levels of follicle-stimulating hormone β subunit (fshb), luteinizing hormone β subunit (lhb), thyroid-stimulating hormone β subunit (tshb), growth hormone (gh), somatolactin (sl), prolactin (prl), and pro-opiomelanocortin (pomc) were investigated by using male and female pituitaries cultured ex vivo (n = 6 per group, except male pituitary supplemented with Vip, where n = 5). Data were expressed as means with error bars representing standard error of the mean. Statistical differences were assessed by Dunnett’s post-hoc test. *p < 0.05; **p < 0.01; ***p < 0.001.
(§2) The pituitaries from five male or female fish were pooled for each sample and cultured ex vivo in Leibovitz’s L-15 medium supplemented with 5% charcoal-stripped fetal bovine serum as described elsewhere. The medium was further supplemented with 10^−5 M medaka Pacap or Vip, or vehicle alone. After 24 h of culture at 25 °C, the pituitaries were processed for total RNA extraction and cDNA synthesis by using the RNeasy Plus Micro Kit (Qiagen) and SuperScript VILO cDNA Synthesis Kit (Thermo Fisher Scientific), respectively. Real-time PCR was performed on the LightCycler 480 System II using LightCycler 480 SYBR Green I Master (Roche Diagnostics). The cycle conditions were: 95 °C for 5 min followed by 45 cycles of 95 °C for 10 sec, 60 °C for 10 sec and 72 °C for 10 sec. Melting curve analysis was performed as described above. Data were normalized to the geometric mean of three reference genes, actb, gapdh (encoding glyceraldehyde-3-phosphate dehydrogenase; National BioResource Project (NBRP) Medaka clone ID olbrno9_f15) and rpl13 (encoding ribosomal protein L13; NBRP Medaka clone ID olovano51_b24), according to Vandesompele et al.[63]. The primers used for real-time PCR are listed in Supplementary Table 3.

[3] = system: luteinizing hormone β subunit (lhb) gene expression; experiment: Ex vivo pituitary organ culture, real-time PCR of lhb; type: cell-based, medaka (Oryzias latipes); details: for lhb expression (in words): 10^-5 M, 24 h, 25 °C, vs vehicle;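 for lhb expression (Fig. 8, lhb): relative expression with female control samples set to 1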
Text: as §1, §2

medaka Adcyap1r1b = experiment: Receptor activation assay, cAMP-responsive luciferase in COS-7 cells; type: cell-based, medaka (Oryzias latipes); details: for receptor activation, increase in intracellular cAMP levels (in words) / pEC50: COS-7 cells; for receptor activation, increase in intracellular cAMP levels (in words): 6 h; for pEC50: 6 h stimulation, 10^-11 to 10^-5 M, luciferase, triplicate, repeated three times, read-out: half-maximal effective concentration (EC50)
Text: (§3) The number at each node indicates bootstrap values for 1000 replicates. Scale bar represents 0.1 substitutions per site. SCTR, secretin receptor. For species names and GenBank accession numbers, see Supplementary Table 2. b Ability of Pacap and Vip to activate medaka Pacap/Vip receptors. […] Representative sections of pituitary at different levels along the anterior–posterior axis are shown. Arrowheads indicate expression signals. […] Scale bars represent 50 μm. f Identity of the pituitary cells expressing each Pacap/Vip receptor. The spatial expression pattern of each receptor was compared with that of each pituitary hormone gene in the RPD and PI. Left and middle panels show images of the expression of the indicated receptor (adcyap1r1a, adcyap1r1b, or vipr2b; green) and pituitary hormone gene (sl, prl, or pomc; magenta) in the same sections; right panels show the merged images with nuclear counterstaining (blue). […] Scale bars represent 20 μm. Quantitative data were expressed as means with error bars representing standard error of the mean. […] PI pars intermedia, PPD proximal pars distalis, RPD rostral pars distalis.
(§4) Receptor activation assay was performed essentially as described previously. Medaka Pacap (38 amino acids) and Vip (28 amino acids) polypeptides with amidated C termini were synthesized by Scrum (Tokyo, Japan). cDNA fragments encoding the full-length Adcyap1r1a (GenBank accession number XM_023965124), Adcyap1r1b (XM_011474272), Vipr1a (XM_023950180), Vipr1b (XM_004079106), Vipr2a (XM_023950048) and Vipr2b (XM_023965399) were PCR-amplified and subcloned into the expression vector pcDNA3.1/V5-His-TOPO (Thermo Fisher Scientific). Each of the resulting receptor expression constructs was transiently transfected into COS-7 cells (obtained from and authenticated by Riken BRC Cell Bank), together with the cAMP-responsive luciferase reporter vector pGL4.29 (Promega) and the internal control vector pGL4.74 (Promega) at a ratio of 11:18:1 for 6 h by using Lipofectamine LTX and Plus reagent (Thermo Fisher Scientific). Forty-two hours after transfection, cells were stimulated with Pacap or Vip at doses of 0, 10^−11, 10^−10, 10^−9, 10^−8, 10^−7, 10^−6 and 10^−5 M for 6 h. After cell lysis, luciferase activity was measured by using the Dual-Luciferase Reporter Assay System (Promega). Each assay was performed in triplicate and repeated three times independently.

medaka Vipr1b = experiment: as above; type: cell-based, medaka (Oryzias latipes); details: for receptor activation, increase in intracellular cAMP levels (in words) / pEC50: COS-7 cells; for receptor activation, increase in intracellular cAMP levels (in words): 6 h; for pEC50: 6 h stimulation, 10^-11 to 10^-5 M, luciferase, triplicate, repeated three times, read-out: half-maximal effective concentration (EC50)
Text: as §3, §4

medaka Vipr2a = experiment: as above; type: cell-based, medaka (Oryzias latipes); details: for receptor activation, increase in intracellular cAMP levels (in words) / pEC50: COS-7 cells; for receptor activation, increase in intracellular cAMP levels (in words): 6 h; for pEC50: 6 h stimulation, 10^-11 to 10^-5 M, luciferase, triplicate, repeated three times, read-out: half-maximal effective concentration (EC50)
Text: as §3, §4

medaka Vipr1a = experiment: as above; type: cell-based, medaka (Oryzias latipes); details: for receptor activation, increase in intracellular cAMP levels (in words) / pEC50: COS-7 cells; for receptor activation, increase in intracellular cAMP levels (in words): 6 h; for pEC50: 6 h stimulation, 10^-11 to 10^-5 M, luciferase, triplicate, repeated three times, read-out: half-maximal effective concentration (EC50)
Text: as §3, §4

medaka Vipr2b = experiment: as above; type: cell-based, medaka (Oryzias latipes); details: for receptor activation, increase in intracellular cAMP levels (in words) / pEC50: COS-7 cells; for receptor activation, increase in intracellular cAMP levels (in words): 6 h; for pEC50: 6 h stimulation, 10^-11 to 10^-5 M, luciferase, triplicate, repeated three times, read-out: half-maximal effective concentration (EC50)
Text: as §3, §4

medaka Adcyap1r1a = experiment: as above; type: cell-based, medaka (Oryzias latipes); details: for receptor activation, increase in intracellular cAMP levels (in words) / pEC50: COS-7 cells; for receptor activation, increase in intracellular cAMP levels (in words): 6 h; for pEC50: 6 h stimulation, 10^-11 to 10^-5 M, luciferase, triplicate, repeated three times, read-out: half-maximal effective concentration (EC50)
Text: as §3, §4

Substance: Pituitary adenylate cyclase-activating polypeptide [Pacap]
- synthesis and release of Sl (in words) [1]: stimulate the synthesis and release of Sl via Adcyap1r1
- prl expression (in words) ([2]; female pituitaries): substantially increased
- prl expression (Fig. 8, prl) ([2]; female, replicate 1): 3.510
- prl expression (Fig. 8, prl) ([2]; female, replicate 2): 4.473
- prl expression (Fig. 8, prl) ([2]; female, replicate 3): 4.149
- prl expression (Fig. 8, prl) ([2]; female, replicate 4): 4.897
- prl expression (Fig. 8, prl) ([2]; female, replicate 5): 3.291
- prl expression (Fig. 8, prl) ([2]; female, replicate 6): 4.279
- prl expression (in words) ([2]; male pituitaries): substantially increased
- prl expression (Fig. 8, prl) ([2]; male, replicate 1): 1.555
- prl expression (Fig. 8, prl) ([2]; male, replicate 2): 3.928
- prl expression (Fig. 8, prl) ([2]; male, replicate 3): 2.640
- prl expression (Fig. 8, prl) ([2]; male, replicate 4): 1.612
- prl expression (Fig. 8, prl) ([2]; male, replicate 5): 3.371
- prl expression (Fig. 8, prl) ([2]; male, replicate 6): 6.401
- lhb expression (in words) ([3]; female pituitaries): increased
- lhb expression (Fig. 8, lhb) ([3]; female, replicate 1): 2.134
- lhb expression (Fig. 8, lhb) ([3]; female, replicate 2): 1.510
- lhb expression (Fig. 8, lhb) ([3]; female, replicate 3): 1.040
- lhb expression (Fig. 8, lhb) ([3]; female, replicate 4): 2.513
- lhb expression (Fig. 8, lhb) ([3]; female, replicate 5): 1.735
- lhb expression (Fig. 8, lhb) ([3]; female, replicate 6): 1.319
- lhb expression (in words) ([3]; male pituitaries): increased
- lhb expression (Fig. 8, lhb) ([3]; male, replicate 1): 3.240
- lhb expression (Fig. 8, lhb) ([3]; male, replicate 2): 1.453
- lhb expression (Fig. 8, lhb) ([3]; male, replicate 3): 3.021
- lhb expression (Fig. 8, lhb) ([3]; male, replicate 4): 2.751
- lhb expression (Fig. 8, lhb) ([3]; male, replicate 5): 1.229
- lhb expression (Fig. 8, lhb) ([3]; male, replicate 6): 1.907
- receptor activation, increase in intracellular cAMP levels (in words) (medaka Adcyap1r1b): dose-dependently activated all six receptors
- pEC50 (medaka Adcyap1r1b): 9.94
- greater potency of Pacap as compared with Vip (medaka Adcyap1r1b; ratio of EC50): over 100 fold
- receptor activation, increase in intracellular cAMP levels (in words) (medaka Vipr1b): dose-dependently activated all six receptors
- pEC50 (medaka Vipr1b): 7.83
- Pacap less potent as compared with Vip (medaka Vipr1b; ratio of EC50, Pacap is the weaker): approximately 20 fold
- potency of Pacap and Vip compared (in words) (medaka Vipr2a): fairly similar potencies
- receptor activation, increase in intracellular cAMP levels (in words) (medaka Vipr2a): dose-dependently activated all six receptors
- pEC50 (medaka Vipr2a): 5.45
- potency of Pacap and Vip compared (in words) (medaka Vipr1a): fairly similar potencies
- receptor activation, increase in intracellular cAMP levels (in words) (medaka Vipr1a): dose-dependently activated all six receptors
- pEC50 (medaka Vipr1a): 9.07
- potency of Pacap and Vip compared (in words) (medaka Vipr2b): fairly similar potencies
- receptor activation, increase in intracellular cAMP levels (in words) (medaka Vipr2b): dose-dependently activated all six receptors
- pEC50 (medaka Vipr2b): 5.56
- receptor activation, increase in intracellular cAMP levels (in words) (medaka Adcyap1r1a): dose-dependently activated all six receptors
- pEC50 (medaka Adcyap1r1a): 9.61
- greater potency of Pacap as compared with Vip (medaka Adcyap1r1a; ratio of EC50): over 100 fold

Substance: vasoactive intestinal peptide [Vip]
- prl expression (in words) ([2]; female pituitaries): substantially increased
- prl expression (Fig. 8, prl) ([2]; female, replicate 1): 4.014
- prl expression (Fig. 8, prl) ([2]; female, replicate 2): 5.400
- prl expression (Fig. 8, prl) ([2]; female, replicate 3): 2.330
- prl expression (Fig. 8, prl) ([2]; female, replicate 4): 5.283
- prl expression (Fig. 8, prl) ([2]; female, replicate 5): 3.539
- prl expression (Fig. 8, prl) ([2]; female, replicate 6): 6.475
- prl expression (in words) ([2]; male pituitaries): substantially increased
- prl expression (Fig. 8, prl) ([2]; male, replicate 1): 3.340
- prl expression (Fig. 8, prl) ([2]; male, replicate 2): 4.481
- prl expression (Fig. 8, prl) ([2]; male, replicate 3): 3.982
- prl expression (Fig. 8, prl) ([2]; male, replicate 5): 3.314
- prl expression (Fig. 8, prl) ([2]; male, replicate 6): 4.421
- lhb expression (in words) ([3]; female pituitaries): no significant effect
- lhb expression (Fig. 8, lhb) ([3]; female, replicate 1): 0.807
- lhb expression (Fig. 8, lhb) ([3]; female, replicate 2): 0.719
- lhb expression (Fig. 8, lhb) ([3]; female, replicate 3): 1.380
- lhb expression (Fig. 8, lhb) ([3]; female, replicate 4): 0.757
- lhb expression (Fig. 8, lhb) ([3]; female, replicate 5): 0.750
- lhb expression (Fig. 8, lhb) ([3]; female, replicate 6): 0.836
- lhb expression (in words) ([3]; male pituitaries): no significant effect
- lhb expression (Fig. 8, lhb) ([3]; male, replicate 1): 1.203
- lhb expression (Fig. 8, lhb) ([3]; male, replicate 2): 1.004
- lhb expression (Fig. 8, lhb) ([3]; male, replicate 3): 1.517
- lhb expression (Fig. 8, lhb) ([3]; male, replicate 5): 0.870
- lhb expression (Fig. 8, lhb) ([3]; male, replicate 6): 0.512
- receptor activation, increase in intracellular cAMP levels (in words) (medaka Adcyap1r1b): dose-dependently activated all six receptors
- pEC50 (medaka Adcyap1r1b): 7.75
- receptor activation, increase in intracellular cAMP levels (in words) (medaka Vipr1b): dose-dependently activated all six receptors
- pEC50 (medaka Vipr1b): 9.14
- potency of Pacap and Vip compared (in words) (medaka Vipr2a): fairly similar potencies
- receptor activation, increase in intracellular cAMP levels (in words) (medaka Vipr2a): dose-dependently activated all six receptors
- pEC50 (medaka Vipr2a): 5.61
- potency of Pacap and Vip compared (in words) (medaka Vipr1a): fairly similar potencies
- receptor activation, increase in intracellular cAMP levels (in words) (medaka Vipr1a): dose-dependently activated all six receptors
- pEC50 (medaka Vipr1a): 9.37
- potency of Pacap and Vip compared (in words) (medaka Vipr2b): fairly similar potencies
- receptor activation, increase in intracellular cAMP levels (in words) (medaka Vipr2b): dose-dependently activated all six receptors
- pEC50 (medaka Vipr2b): 5.37
- receptor activation, increase in intracellular cAMP levels (in words) (medaka Adcyap1r1a): dose-dependently activated all six receptors
- pEC50 (medaka Adcyap1r1a): 7.49
